In the supplement of paper PMC10307832:

What was measured:
Experiment in all cases: relative viability (nuclei count vs DMSO), 5 days (fraction); higher = more cells survive
Axitinib + Pemetrexed = compound: CNC(=O)c1ccccc1Sc1ccc2c(/C=C/c3ccccn3)n[nH]c2c1 [Axitinib] + Nc1nc2[nH]cc(CCc3ccc(C(=O)N[C@@H](CCC(=O)O)C(=O)O)cc3)c2c(=O)[nH]1 [Pemetrexed] (partner 0.2 µM)
In short: (§1)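 Lung cancer cell lines were pin-tool dosed in 1536-well plates on the day after seeding, with either a lone drug or a fixed anchor-drug dose plus five library-drug doses (not always all listed) in √10 steps. Nuclei were counted on 4× images after 5 days. Relative viability is the ratio of treated-well to vehicle-well nuclei counts, with each value a median of duplicate plates.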

Bemcentinib + Lapatinib = compound: Nc1nc(Nc2ccc3c(c2)CC[C@@H](N2CCCC2)CC3)nn1-c1cc2c(nn1)-c1ccccc1CCC2 [Bemcentinib] + CS(=O)(=O)CCNCc1ccc(-c2ccc3ncnc(Nc4ccc(OCc5cccc(F)c5)c(Cl)c4)c3c2)o1 [Lapatinib] (partner 2 µM)
In short: as §1

Bemcentinib + Tozasertib = compound: Nc1nc(Nc2ccc3c(c2)CC[C@@H](N2CCCC2)CC3)nn1-c1cc2c(nn1)-c1ccccc1CCC2 [Bemcentinib] + Cc1cc(Nc2cc(N3CCN(C)CC3)nc(Sc3ccc(NC(=O)C4CC4)cc3)n2)n[nH]1 [Tozasertib] (partner 0.1 µM)
In short: as §1

Bemcentinib + Bortezomib = compound: Nc1nc(Nc2ccc3c(c2)CC[C@@H](N2CCCC2)CC3)nn1-c1cc2c(nn1)-c1ccccc1CCC2 [Bemcentinib] + CC(C)C[C@H](NC(=O)[C@H](Cc1ccccc1)NC(=O)c1cnccn1)B(O)O [Bortezomib] (partner 0.002 µM)
In short: as §1

Cell Line	relative viability (Axitinib + Pemetrexed; first compound 0.005 µM)	relative viability (Axitinib + Pemetrexed; first compound 0.01581 µM)	relative viability (Axitinib + Pemetrexed; first compound 0.05 µM)	relative viability (Axitinib + Pemetrexed; first compound 0.1581 µM)	relative viability (Axitinib + Pemetrexed; first compound 0.5 µM)	relative viability (Bemcentinib + Lapatinib; first compound 0.04 µM)	relative viability (Bemcentinib + Lapatinib; first compound 0.1265 µM)	relative viability (Bemcentinib + Lapatinib; first compound 0.4 µM)	relative viability (Bemcentinib + Lapatinib; first compound 1.265 µM)	relative viability (Bemcentinib + Lapatinib; first compound 4 µM)	relative viability (Bemcentinib + Tozasertib; first compound 0.04 µM)	relative viability (Bemcentinib + Tozasertib; first compound 0.1265 µM)	relative viability (Bemcentinib + Tozasertib; first compound 0.4 µM)	relative viability (Bemcentinib + Tozasertib; first compound 4 µM)	relative viability (Bemcentinib + Bortezomib; first compound 0.04 µM)	relative viability (Bemcentinib + Bortezomib; first compound 0.1265 µM)	relative viability (Bemcentinib + Bortezomib; first compound 0.4 µM)	relative viability (Bemcentinib + Bortezomib; first compound 1.265 µM)	relative viability (Bemcentinib + Bortezomib; first compound 4 µM)	relative viability (Bemcentinib + Tozasertib; first compound 1.265 µM)
NCI-H1793	1.04	0.568	1.01	0.821	0.791	0.488	0.621	0.693	0.582	0.75	0.313	0.371	0.314	0.371	–	–	–	–	–	–
HCC-78	0.919	0.941	0.933	0.974	0.962	0.113	0.443	0.693	0.281	0.0037	0.43	0.445	0.421	0.355	0.485	0.516	0.556	0.541	0.491	–
NCI-H322M	0.586	0.691	0.679	0.628	0.627	0.576	0.635	0.574	0.645	0.611	0.5	0.582	0.483	0.525	1.25	1.25	1.23	1.34	1.34	0.527
COR-L23	0.197	0.201	0.194	0.192	0.21	1.18	0.997	1.14	1.05	1.02	0.232	0.167	0.225	0.183	1.16	1.14	1.17	1.27	1.24	0.211
201T	0.379	0.3	0.294	0.302	0.332	1	1.02	1.02	1.03	1.06	0.932	1.06	0.94	0.964	0.864	1.15	1.12	0.978	1.1	0.868
NCI-H2347	0.443	0.39	0.441	0.458	0.446	1.01	0.928	0.977	0.955	0.9	0.56	0.602	0.525	0.72	0.831	1.03	0.967	0.901	1.11	0.593
LCLC-97TM1	0.203	0.188	0.176	0.186	0.181	0.777	1.11	–	1.12	0.941	0.214	0.214	0.22	0.186	0.571	0.794	0.703	0.602	0.473	0.246
NCI-H2126	0.679	0.708	0.689	0.75	0.737	0.791	0.768	0.8	0.814	0.842	0.896	0.822	0.788	0.837	1.11	1.07	1.18	1.16	1.13	0.856
NCI-H1944	0.6	0.583	0.707	0.657	0.652	0.794	0.909	0.817	0.883	0.887	0.258	0.261	0.255	0.242	–	–	–	–	–	0.251
HCC-15	0.211	0.228	0.23	0.22	0.211	0.883	0.954	0.884	0.895	0.903	0.381	0.488	0.401	0.392	0.931	1.19	1.12	1	1.07	0.365
NCI-H2405	0.93	1.28	1.22	1.02	1.15	0.86	1.16	1.05	1.1	1.03	0.733	0.783	0.702	0.671	1.01	0.853	0.985	1.07	0.938	0.74
COR-L 105	1.14	1.09	1.05	1.25	1.26	0.311	0.327	0.416	0.338	0.394	0.306	0.358	0.317	0.345	0.766	0.71	1.04	0.739	0.74	0.336
ABC-1	–	–	–	–	–	1.33	1.36	1.33	0.998	1.26	0.16	0.175	0.187	0.162	0.269	0.285	0.289	0.285	0.257	0.193
HCC-366	0.151	0.168	0.182	0.208	0.224	0.994	1.16	1.51	1.06	1.03	0.125	0.101	0.119	0.11	0.985	1.16	1.35	1.1	1.06	0.149
NCI-H1623	–	–	–	–	–	–	–	–	–	–	0.427	0.438	0.455	0.442	–	–	–	–	–	0.461
NCI-H2342	0.753	0.792	0.707	0.782	0.669	–	–	–	–	–	0.574	0.429	0.492	0.516	–	–	–	–	–	0.464
NCI-H2085	0.903	0.876	0.905	0.806	0.808	0.625	0.805	0.756	0.74	0.721	0.788	0.974	0.69	0.757	1.01	1.11	1.03	0.997	0.973	0.797
BEN	0.73	0.858	0.801	0.859	0.751	0.488	0.844	0.807	0.531	0.734	0.464	0.446	0.569	0.461	0.56	0.899	0.891	0.506	0.776	0.579
